Assay results reported in US11547681B2, “N-acylethanolamide derivatives and uses thereof” (ELIEM THERAPEUTICS, INC., priority 2016, dated 2023).

Assay: in vitro
Conditions: for Measured concentration of PEA (analyte) / % Remaining of Initial / microsomal CLint at 1 μM / half-life at 1 μM / microsomal CLint / half-life: male; for Measured concentration of PEA (analyte) / % Remaining of Initial: 1 μM; for % Remaining of Initial / microsomal CLint at 1 μM / half-life at 1 μM / microsomal CLint / half-life: microsomes
Method: (§1) Reaction mixture, minus cofactors, was prepared as described below. Test article was added into the reaction mixture at a final concentration of 1 μM. […] An aliquot of the reaction mixture (without cofactor) was equilibrated in a shaking water bath at 37° C. for 3 minutes. The reaction was initiated by the addition of cofactor, and the mixture was incubated in a shaking water bath at 37° C. Aliquots (100 μL) were withdrawn at 0, 10, 20, 30, and 60 minutes. Test article samples were immediately combined with 300 μL of ice-cold acetonitrile containing 1% formic acid. Control samples were immediately combined with 400 μL of ice-cold 50/50 acetonitrile (ACN)/dH2O containing 0.1% formic acid and internal standard to terminate the reaction. Samples were then mixed and centrifuged to precipitate proteins. Calibration standards were prepared in matched matrix. Samples and standards were assayed by LC-MS/MS using electrospray ionization for both dosed prodrug and expected drug (PEA). Analytical conditions are outlined in Appendix 8-1. Test article concentration at each time point was compared to test article concentration at time 0 to determine the percent remaining at each time point. Half-lives were calculated using GraphPad software, fitting to a single-phase exponential decay equation.
Reaction mixture, minus cofactors, was prepared as described below. Test article was added into the reaction mixture at a final concentration of 1 μM. […] An aliquot of the reaction mixture (without cofactor) was equilibrated in a shaking water bath at 37° C. for 5 minutes. Reaction was initiated by the addition of cofactor, and the mixture was incubated in a shaking water bath at 37° C. Aliquots (100 μL) were withdrawn at 0, 10, 20, 30, and 60 minutes. Test article samples were immediately combined with 300 μL of ice-cold acetonitrile containing 1% formic acid. Control samples were immediately combined with 400 μL of ice-cold 50/50 acetonitrile (ACN)/dH2O containing 0.1% formic acid and internal standard to terminate the reaction. Samples were then mixed and centrifuged to precipitate proteins. Calibration standards were prepared in matched matrix. Samples and standards were assayed by LC-MS/MS using electrospray ionization for both the dosed prodrug and the expected drug (PEA). Analytical conditions are outlined in Appendix 10-1. Test article concentration at each time point was compared to the test article concentration at time 0 to determine the percent remaining at each time point. Half-lives were calculated using GraphPad software, fitting to a single-phase exponential decay equation.
as §1, with “minutes. Reaction” for “minutes. The reaction”, “300 μL,” for “300 μL”, “Appendix 13-1.” for “Appendix 8-1.”
Reaction mixture, minus cofactors, was prepared as described below.

[1] = Beagle, dog, calculated value in parentheses
[2] = CD-1, mouse, calculated value in parentheses
[3] = Beagle, Control Compound, Dog liver microsomes
[4] = Beagle, Control compound, Dog liver microsomes
[5] = Beagle, control compound, dog liver microsomes
[6] = CD-1, mouse, Control Compound, Mouse liver microsomes

CCCCCCCCCCCCCCCC(=O)NCCOC(=O)CCC(=O)OC(COC(=O)CCC)COC(=O)CCC [Compound I-16]
Measured concentration of PEA (analyte) (Beagle, dog, 0 min): 0.053 µM
Measured concentration of PEA (analyte) (Beagle, dog, 10 min): 0.59 µM
Measured concentration of PEA (analyte) (Beagle, dog, 20 min): 0.48 µM
Measured concentration of PEA (analyte) (Beagle, dog, 30 min): 0.43 µM
Measured concentration of PEA (analyte) (Beagle, dog, 60 min): 0.20 µM
% Remaining of Initial (Beagle, dog, 0 h): 100%
% Remaining of Initial (Beagle, dog, 10 min): 4.4%
% Remaining of Initial (Beagle, dog, 20 min): 1.6%
% Remaining of Initial (Beagle, dog, 0.5 h): 1.4%
% Remaining of Initial (Beagle, dog, 1 h): 1.5%
microsomal CLint at 1 μM (Beagle, dog): > 139 µL/min/mg
microsomal CLint at 1 μM [1]: 618 µL/min/mg
half-life at 1 μM (Beagle, dog): < 10 min
half-life at 1 μM [1]: 2.2 min
Measured concentration of PEA (analyte) (CD-1, mouse, 0 min): 0.29 µM
Measured concentration of PEA (analyte) (CD-1, mouse, 10 min): 0.27 µM
Measured concentration of PEA (analyte) (CD-1, mouse, 20 min): 0.12 µM
Measured concentration of PEA (analyte) (CD-1, mouse, 30 min): 0.089 µM
Measured concentration of PEA (analyte) (CD-1, mouse, 60 min): 0.0093 µM
% Remaining of Initial (CD-1, mouse, 0 h): 100%
% Remaining of Initial (CD-1, mouse, 10 min): 7.6%
% Remaining of Initial (CD-1, mouse, 20 min): 3.0%
% Remaining of Initial (CD-1, mouse, 0.5 h): 2.1%
% Remaining of Initial (CD-1, mouse, 1 h): 1.8%
microsomal CLint at 1 μM (CD-1, mouse): > 139 µL/min/mg
microsomal CLint at 1 μM [2]: 503 µL/min/mg
half-life at 1 μM (CD-1, mouse): < 10 min
half-life at 1 μM [2]: 2.8 min

C[C@]12CC[C@H]3[C@@H](CCC4=CC(=O)CC[C@@]43C)[C@@H]1CC[C@@H]2O [Testosterone, testosterone, reference compound]
Half-life (control compound, mouse liver microsomes): 2.1 min
microsomal CLint [3]: 41.9 µL/min/mg
microsomal CLint [4]: 41.5 µL/min/mg
microsomal CLint (Beagle, Dog liver microsomes, control compound): 41.9 µL/min/mg
microsomal CLint [5]: 59.3 µL/min/mg
half-life [3]: 33 min
half-life [4]: 33 min
half-life at 1 μM (Beagle, Dog liver microsomes): 33 min
half-life [5]: 23 min
microsomal CLint [6]: 444 µL/min/mg
microsomal CLint (CD-1, mouse, Mouse liver microsomes, control compound): 190 µL/min/mg
microsomal CLint (CD-1, mouse, control compound, mouse liver microsomes): 674 µL/min/mg
half-life [6]: 3.1 min
half-life (CD-1, mouse, Control compound, Mouse liver microsomes): 4.9 min
half-life at 1 μM (CD-1, mouse, Mouse liver microsomes): 7.3 min
